This is an account of results in patent US20260285853A1, “COMPOUNDS AND METHODS FOR MODULATING SPLICING” (REMIX THERAPEUTICS INC., priority 2023, published 2026).

Holding throughout (format): cell-based
Test [1] concerns SH-SY5Y (human neuroblastoma) cells. The experiment in a line: Cell viability, Cell Titer Glo 2.0 assay. The settings on record: read-out: Viability SHSY5Y.3 GI50. Summed up:
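Steps: serial DMSO dilution of compound, 1:100 dilution into medium, addition to cells (0.1% DMSO final). Incubate 72 h at 37 °C, 5% CO2. Assay with CellTiter-Glo 2.0 reagent.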
In general terms: ATP-based viability assays read luminescence as a measure of living cells.

For test [2], the system named is HTT mRNA. Description: Splicing RT-qPCR assay (THP), Table 2A. The settings on record: Table 2A (THP); for AC50: AJ mRNA increase, read-out: HTT AJ (increase in alternative junction mRNA, AC50); for IC50: CJ mRNA decrease, read-out: HTT CJ (decrease in canonical junction mRNA, IC50). Background: In qPCR the cycle at which signal appears reflects the starting amount.

Test [3] relates to MYB mRNA. The experiment in a line: Gene panel canonical junction qPCR assay, decrease in CJ mRNA, Table 3. The settings on record: decrease in canonical junction (CJ) mRNA, gene panel qPCR, Table 3. Summed up: (§1)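 IC50 is the concentration giving 50% response in decrease of the canonical junction transcript, fitted with a 4-parameter logistic equation. Transcripts were quantified by RT-qPCR in A673 or K562 cells after 24 h exposure to compounds dosed up to 10 uM in 3-fold steps.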

The subject of test [4] is HTT mRNA. Described as above. The note with it: decrease in canonical junction (CJ) mRNA, gene panel qPCR, Table 3. The method, boiled down:
as §1

Test [5] has as its system MYB mRNA. Description: Splicing RT-qPCR assay (THP), Table 2A. The note with it: Table 2A (THP); for AC50: AJ mRNA increase, read-out: MYB AJ (increase in alternative junction mRNA, AC50); for IC50: CJ mRNA decrease, read-out: MYB CJ (decrease in canonical junction mRNA, IC50).

The term GI50 denotes the concentration that inhibits growth by half. By AC50 is commonly meant the concentration giving half of the maximal activity seen. For orientation: IC50 means the concentration at which inhibition is half-maximal. Consider `COc1cc2nn(C)cc2cc1NC(=O)c1ccc(N2CCC(NC3CC3)CC2)c2c(F)n(C)nc12` [Compound 477], for which the 50% growth inhibitory concentration (GI50) in test [1] fell in the range of 0.1 to 1 µM. In addition, the AC50 in test [2] and in test [5] was 0.1 to 1 µM throughout. The IC50 in test [2], in test [3], in test [4] and in test [5] was 0.1 to 1 µM throughout.

For `Cc1cn2cc(NC(=O)c3ccc(N4CCC(NC5CC5)CC4)c4cn(C)nc34)c(F)c2c(C)n1` [Compound 478, 4-[4-(cyclopropyl-amino)-1-piperidyl]-N-(8-fluoro-1,3-dimethyl-pyrrolo[1,2-a]-pyrazin-7-yl)-2-methyl-indazole-7-carboxamide], the 50% growth inhibitory concentration (GI50) in test [1] was 1 to 10 µM. Further, the AC50 in test [2] and in test [5] was over 10 µM each time. The IC50 in test [2], in test [3], in test [4] and in test [5] was over 10 µM each time.

As to `Cc1cn2cc(NC(=O)c3ccc(N4CCC(NC5CC5)CC4)c4cn(C)nc34)nc2c(Cl)n1` [Compound 479, N-(8-chloro-6-methyl-imidazo[1,2-a]-pyrazin-2-yl)-4-[4-(cyclopropylamino)-1-piperidyl]-2-methyl-indazole-7-carboxamide], the GI50 in test [1] was in the range of 1 to 10 µM. The AC50 is over 10 µM in test [2] and 0.1 to 1 µM in test [5]. The IC50 in test [2] was over 10 µM; in test [3] it was 0.1 to 1 µM; in test [4] it was over 10 µM; in test [5] it was 0.1 to 1 µM.

In the case of `Cn1cc2c(N3CCC(NC4CC4)CC3)cc(F)c(C(=O)Nc3ccc4c(c3)COB4O)c2n1` [Compound 481, 4-(4-(cyclopropyl-amino)piperidin-1-yl)-6-fluoro-N-(1-hydroxy-1,3-dihydrobenzo[c][1,2]-oxaborol-5-y1)-2-methyl-2H-indazole-7-carboxamide 2,2,2-trifluoroacetate], the GI50 in test [1] was 1 to 10 µM. In addition, the results for the concentration at half-maximal activity (AC50) in test [2] and in test [5] were over 10 µM and 1 to 10 µM, respectively. The IC50 in test [2], in test [3], in test [4] and in test [5] was over 10 µM each time.

As for `Cn1cc2c(N3CCC(NC4CC4)CC3)cc(F)c(C(=O)Nc3ccc4c(c3)B(O)OC4)c2n1` [Compound 482, 4-[4-(cyclopropyl-amino)-1-piperidy1]-6-fluoro-N-(1-hydroxy-3H-2,1-benzoxaborol-6-y1)-2-methyl-indazole-7-carboxamide 2,2,2-trifluoroacetate], the GI50 in test [1] lay in the range of 1 to 10 µM. Moreover, the half-maximal activity concentration (AC50) in test [2] and in test [5] was over 10 µM throughout. Also, the half-inhibitory concentration (IC50) in test [2], in test [3], in test [4] and in test [5] was over 10 µM each time.

As to `Cc1cc2cc(NC(=O)c3ccc(N4CCC(NC5CC5)CC4)c4cn(C)nc34)sc2c(C)n1` [Compound 483, 4-[4-(cyclopropyl-amino)-1-piperidyl]-N-(5,7-dimethyl-thieno[2,3-c]-pyridin-2-yl)-2-methyl-indazole-7-carboxamide], the GI50 in test [1] was 0.1 to 1 µM. The half-maximal activity concentration (AC50) in test [2] and in test [5] was over 10 µM throughout. Further, the 50% inhibitory concentration (IC50) in test [2], in test [3], in test [4] and in test [5] was over 10 µM throughout.

With `Cc1cc2cc(NC(=O)c3c(F)cc(N4CCC(NC5CC5)CC4)c4cn(C)nc34)sc2c(C)n1` [Compound 484, 4-[4-(cyclopropyl-amino)-1-piperidyl]-N-(5,7-dimethyl-thieno[2,3-c]pyridin-2-yl)-6-fluoro-2-methyl-indazole-7-carboxamide], in test [1], the GI50 was 1 to 10 µM. The half-maximal activity concentration (AC50) in test [2] and in test [5] was over 10 µM each time. In addition, the IC50 in test [2], in test [3], in test [4] and in test [5] was over 10 µM throughout.

`COc1cc2nn(C)cc2cc1NC(=O)c1ccc(N2CCC(NC3CC3)CC2)c2c(C)n(C)nc12` [Compound 485, 4-[4-(cyclopropylamino)-1-piperidyl]-N-(6-methoxy-2-methyl-indazol-5-yl)-2,3-dimethyl-indazole-7-carboxamide]: the GI50 in test [1] fell in the range of 0.1 to 1 µM. The AC50 in test [2] and in test [5] was 0.1 to 1 µM in each case. Moreover, the IC50 in test [2], in test [3], in test [4] and in test [5] was 0.1 to 1 µM in each case.

On to `Cc1cn2cc(NC(=O)c3ccc(N4CCC(NC5CC5)CC4)c4cn(C)nc34)nc2c(-c2ccns2)n1` [Compound 486, 4-(4-(cyclopropylamino)-piperidin-1-yl)-N-(8-(isothiazol-5-yl)-6-methyl-imidazo[1,2-a]-pyrazin-2-yl)-2-methyl-2H-indazole-7-carboxamide], for which, in test [1], the 50% growth inhibitory concentration (GI50) was in the range of 1 to 10 µM. Also, the half-maximal activity concentration (AC50) in test [2] and in test [5] was over 10 µM throughout. Also, the IC50 in test [2], in test [3], in test [4] and in test [5] was over 10 µM each time.

In the case of `Cc1cn2cc(NC(=O)c3ccc(N4CCC(NC5CC5)CC4)c4cn(C)nc34)nc2c(-c2ccn[nH]2)n1` [Compound 487, 4-(4-(cyclopropyl-amino)piperidin-1-yl)-2-methyl-N-(6-methyl-8-(1H-pyrazol-5-yl)imidazo[1,2-a]-pyrazin-2-yl)-2H-indazole-7-carboxamide 2,2,2-trifluoroacetate], the GI50 in test [1] lay within 1 to 10 µM. Also, the half-maximal activity concentration (AC50) in test [2] and in test [5] was over 10 µM in each case. Also, the half-inhibitory concentration (IC50) in test [2] was 1 to 10 µM; in test [3], over 10 µM; in test [4] it was 1 to 10 µM; in test [5], over 10 µM.

For `COc1cn2nc(C)cc2cc1C(=O)Nc1ccc(N2CCNCC2)c2cn(C)nc12` [Compound 488, 6-methoxy-2-methyl-N-(2-methyl-4-piperazin-1-yl-indazol-7-yl) pyrazolo[1,5-a]pyridine-5-carboxamide], in test [1], the concentration for 50% growth inhibition (GI50) is over 10 µM. Besides, the AC50 in test [2] and in test [5] was over 10 µM each time. Besides, the IC50 in test [2], in test [3], in test [4] and in test [5] was over 10 µM in each case.

Turning to `COc1cc2nn(C)cc2cc1C(=O)Nc1ccc(N2CCNCC2)c2cn(C)nc12` [Compound 489, 6-methoxy-2-methyl-N-(2-methyl-4-piperazin-1-yl-indazol-7-yl)-indazole-5-carboxamide], the GI50 in test [1] was over 10 µM. The AC50 in test [2] and in test [5] was over 10 µM in each case. Further, the 50% inhibitory concentration (IC50) in test [2], in test [3], in test [4] and in test [5] was over 10 µM each time.

`CC1OB(O)c2cc(NC(=O)c3c(F)cc(N4CCC(NC5CC5)CC4)c4cn(C)nc34)ccc21` (stereo not shown) [Compound 490, 4-(4-(cyclopropylamino)piperidin-1-yl)-6-fluoro-N-(1-hydroxy-3-methyl-1,3-dihydrobenzo[c]-[1,2]oxaborol-6-yl)-2-methyl-2H-indazole-7-carboxamide 2,2,2-trifluoroacetate]: in test [1], the GI50 was in the range of 1 to 10 µM. For the same molecule, the concentration at half-maximal activity (AC50) in test [2] and in test [5] was over 10 µM each time. In addition, the concentration for half-maximal inhibition (IC50) in test [2] was over 10 µM; in test [3], 1 to 10 µM; in test [4] it was over 10 µM; in test [5], 1 to 10 µM.

Turning to `Cc1cc2oc(NC(=O)c3c(F)cc(N4CCC(NC5CC5)CC4)c4cn(C)nc34)cc2c(C)n1` [Compound 491, 4-[4-(cyclopropylamino)-1-piperidyl]-N-(4,6-dimethyl-furo[3,2-c]pyridin-2-yl)-6-fluoro-2-methyl-indazole-7-carboxamide], the GI50 in test [1] fell in the range of 1 to 10 µM. The concentration at half-maximal activity (AC50) in test [2] and in test [5] was over 10 µM in each case. Further, the half-maximal inhibitory concentration (IC50) in test [2], in test [3], in test [4] and in test [5] was over 10 µM throughout.

For `Cc1cn2cc(NC(=O)c3ccc(N4CCC(NC5CC5)CC4)c4cn(C)nc34)nc2c(-c2cnsc2)n1` [Compound 492, 4-[4-(cyclopropylamino)-1-piperidyl]-N-(8-isothiazol-4-yl-6-methyl-imidazo[1,2-a]-pyrazin-2-yl)-2-methyl-indazole-7-carboxamide], the GI50 in test [1] is over 10 µM. Besides, the AC50 in test [2] and in test [5] was over 10 µM in each case. For the same molecule, the IC50 in test [2], in test [3], in test [4] and in test [5] was over 10 µM in each case.

On to `CCNCC1CN(c2ccc(C(=O)Nc3cn4cc(C)nc(C)c4n3)c3nn(C)cc23)C1` [Compound 494, N-(6,8-dimethylimidazo[1,2-a]-pyrazin-2-yl)-4-[3-(ethylaminomethyl)azetidin-1-yl]-2-methyl-indazole-7-carboxamide], for which, in test [1], the 50% growth inhibitory concentration (GI50) was over 10 µM. The AC50 in test [2] and in test [5] was over 10 µM throughout. The half-inhibitory concentration (IC50) in test [2], in test [3], in test [4] and in test [5] was over 10 µM each time.
